The results in this text go back to ChEMBL document CHEMBL3044603, “In search of new herbicidal inhibitors of the non-mevalonate pathway” (Pest Manag Sci, 2013).

The source made the active and inactive calls. The calls are words filed in the database; no cut-off is given here.

For experiment [1], the target named is T1, 1-deoxy-D-xylulose 5-phosphate reductoisomerase, chloroplastic (Arabidopsis thaliana, UniProt Q9XFS9).
T1 sequence (Q9XFS9 whole entry): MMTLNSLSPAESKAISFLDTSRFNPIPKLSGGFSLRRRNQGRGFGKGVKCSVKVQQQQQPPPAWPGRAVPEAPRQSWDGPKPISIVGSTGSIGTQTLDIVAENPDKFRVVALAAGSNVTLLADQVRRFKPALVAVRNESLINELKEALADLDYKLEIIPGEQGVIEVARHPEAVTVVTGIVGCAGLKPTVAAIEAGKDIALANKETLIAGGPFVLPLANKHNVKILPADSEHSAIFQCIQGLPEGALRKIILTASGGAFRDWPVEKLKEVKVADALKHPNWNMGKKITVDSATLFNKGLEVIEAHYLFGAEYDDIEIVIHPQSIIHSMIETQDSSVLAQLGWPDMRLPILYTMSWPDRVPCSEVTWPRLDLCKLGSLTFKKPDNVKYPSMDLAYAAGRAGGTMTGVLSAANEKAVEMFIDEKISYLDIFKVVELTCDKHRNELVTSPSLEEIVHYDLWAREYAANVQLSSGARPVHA
The experiment can be described thus: Inhibition of Arabidopsis thaliana IspC expressed in Escherichia coli after 40 min by spectrophotometric analysis.

Experiment [2] deals with Lemna minor. The experiment is described as follows: Herbicidal activity against Lemna minor (common duckweed) assessed as growth inhibition at 56 mg/l measured for 6 days by picture analysis relative to control. Format: functional, organism-based.
Experiment [3] relates to Lemna minor. The experiment can be described thus: Herbicidal activity against Lemna minor (common duckweed) assessed as decrease in chlorophyll fluorescence at 56 mg/l measured for 4 days by picture analysis relative to control. The experiment is classed as functional, organism-based.
For experiment [4], the target named is T2, 1-deoxy-D-xylulose-5-phosphate synthase, chloroplastic (Arabidopsis thaliana, UniProt Q38854).
T2 sequence (Q38854 whole entry): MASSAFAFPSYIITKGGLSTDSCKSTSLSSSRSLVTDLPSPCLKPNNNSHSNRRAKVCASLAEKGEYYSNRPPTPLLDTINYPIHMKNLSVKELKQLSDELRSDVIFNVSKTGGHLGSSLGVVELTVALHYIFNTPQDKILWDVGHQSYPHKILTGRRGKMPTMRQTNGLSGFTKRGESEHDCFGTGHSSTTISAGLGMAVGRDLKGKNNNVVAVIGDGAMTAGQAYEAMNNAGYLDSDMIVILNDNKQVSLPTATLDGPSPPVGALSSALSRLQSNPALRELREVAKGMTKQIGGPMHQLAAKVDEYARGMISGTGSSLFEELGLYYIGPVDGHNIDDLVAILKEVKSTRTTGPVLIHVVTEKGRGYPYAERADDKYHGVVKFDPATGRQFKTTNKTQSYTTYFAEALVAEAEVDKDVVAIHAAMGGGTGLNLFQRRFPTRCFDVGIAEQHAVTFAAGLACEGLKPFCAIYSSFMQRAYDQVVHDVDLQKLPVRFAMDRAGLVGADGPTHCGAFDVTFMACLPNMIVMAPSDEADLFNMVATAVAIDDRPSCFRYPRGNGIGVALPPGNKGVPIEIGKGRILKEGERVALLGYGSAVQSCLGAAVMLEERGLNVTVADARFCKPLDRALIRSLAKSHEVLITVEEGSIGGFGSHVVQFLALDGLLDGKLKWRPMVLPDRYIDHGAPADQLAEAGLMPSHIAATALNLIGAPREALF
The experiment is described as follows: Inhibition of Arabidopsis thaliana N-terminal GST-tagged DXS expressed in Escherichia coli BL21 GOLD (DE) using glyceraldehydephosphate and pyruvate as substrate after 90 min by spectrophotometric analysis.

For experiment [5], the target named is T3, 4-diphosphocytidyl-2-C-methyl-D-erythritol kinase, chloroplastic/chromoplastic (Solanum lycopersicum, UniProt P93841).
T3 sequence (P93841 whole entry): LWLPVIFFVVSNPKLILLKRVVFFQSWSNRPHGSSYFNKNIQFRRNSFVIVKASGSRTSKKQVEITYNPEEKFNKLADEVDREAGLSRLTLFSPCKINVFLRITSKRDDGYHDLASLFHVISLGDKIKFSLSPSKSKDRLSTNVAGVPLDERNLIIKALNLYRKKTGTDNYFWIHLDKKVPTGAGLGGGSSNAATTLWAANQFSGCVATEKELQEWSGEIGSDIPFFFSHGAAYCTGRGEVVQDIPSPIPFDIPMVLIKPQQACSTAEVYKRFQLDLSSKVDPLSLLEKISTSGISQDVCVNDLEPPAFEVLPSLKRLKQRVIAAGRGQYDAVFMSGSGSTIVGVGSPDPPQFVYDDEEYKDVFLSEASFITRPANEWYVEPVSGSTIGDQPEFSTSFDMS
The experiment can be described thus: Inhibition of Solanum lycopersicum (tomato) IspE.

For experiment [6], the target named is T4, 2-C-methyl-D-erythritol 4-phosphate cytidylyltransferase, chloroplastic (Arabidopsis thaliana, UniProt P69834).
T4 sequence (P69834 whole entry): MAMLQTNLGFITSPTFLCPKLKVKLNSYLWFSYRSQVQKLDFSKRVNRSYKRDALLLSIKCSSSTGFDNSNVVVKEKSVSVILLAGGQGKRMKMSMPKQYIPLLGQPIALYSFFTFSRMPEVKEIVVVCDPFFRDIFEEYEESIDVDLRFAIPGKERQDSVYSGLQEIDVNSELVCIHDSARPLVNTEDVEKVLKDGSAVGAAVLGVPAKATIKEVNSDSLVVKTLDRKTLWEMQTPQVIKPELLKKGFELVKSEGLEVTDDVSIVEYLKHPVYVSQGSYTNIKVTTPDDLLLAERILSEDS
The experiment can be described thus: Inhibition of Arabidopsis thaliana IspD.

Experiment [7] concerns the target T5, 4-diphosphocytidyl-2-C-methyl-D-erythritol kinase (Escherichia coli (strain K12), UniProt P62615).
T5 sequence (P62615 whole entry): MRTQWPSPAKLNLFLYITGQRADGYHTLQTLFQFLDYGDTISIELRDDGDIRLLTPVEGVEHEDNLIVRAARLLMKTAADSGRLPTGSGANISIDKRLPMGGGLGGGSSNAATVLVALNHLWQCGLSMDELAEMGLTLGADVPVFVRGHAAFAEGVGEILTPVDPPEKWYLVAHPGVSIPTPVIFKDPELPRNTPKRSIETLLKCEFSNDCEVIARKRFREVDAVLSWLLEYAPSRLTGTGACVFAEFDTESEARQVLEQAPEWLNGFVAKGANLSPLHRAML
The experiment can be described thus: Inhibition of Escherichia coli IspE by spectrophotometric analysis.

Experiment [8] concerns the target T6, 2-C-methyl-D-erythritol 2,4-cyclodiphosphate synthase, chloroplastic (Arabidopsis thaliana, UniProt Q9CAK8).
T6 sequence (Q9CAK8 whole entry): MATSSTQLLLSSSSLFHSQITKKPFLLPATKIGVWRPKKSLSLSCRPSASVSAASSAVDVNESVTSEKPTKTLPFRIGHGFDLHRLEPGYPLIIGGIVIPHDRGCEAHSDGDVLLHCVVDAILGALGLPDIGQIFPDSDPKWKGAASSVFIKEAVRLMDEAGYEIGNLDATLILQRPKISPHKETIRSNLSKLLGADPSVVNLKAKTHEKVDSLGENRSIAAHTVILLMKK
The experiment can be described thus: Inhibition of Arabidopsis thaliana IspF expressed in Escherichia coli XL1-Blue after 30 min by spectrophotometric analysis.

What is called IC50 is the point on the concentration scale where inhibition reaches its midpoint. High values mean lower potency, low ones higher potency. `O=CN(O)CCCP(=O)(O)O` [FOSMIDOMYCIN] gave a 50% inhibitory concentration (IC50) in experiment [1] of 0.1 µM. That is a sub-micromolar value.

`CC(C)Nc1nc(Nc2ccccc2)nc(Cl)c1-c1c(F)cccc1Cl` came in with an IC50 in experiment [1] of 34 µM. In addition, the “growth inhibition (GI)” value in the experiment on Lemna minor [2] was “inactive”. Further, in the experiment with Lemna minor [3], the outcome was inactive.

Take `CC1(C)C(=O)ON(Cc2ccccc2Cl)C1=O` [KETOCLOMAZONE]: in experiment [4], the IC50 worked out at 0.08 µM.

Consider `NC1=N/C(=N\NC(=O)Cc2cccc3ccccc23)c2ccccc21`, for which, in the experiment with Lemna minor [2], the “growth inhibition (GI)” value was “inactive”. This compound also registered a half-inhibitory concentration (IC50) in experiment [5] of 54 µM. Besides, the outcome with Lemna minor [3] was inactive.

On to `NC1=N/C(=N\NC(=O)c2cc(Cl)ccn2)c2ccc3ccccc3c21`, for which the “growth inhibition (GI)” value with Lemna minor [2] is “Active”. Also, the IC50 in experiment [5] is 7.2 µM. Also, the result with Lemna minor [3] was Active.

Take `COc1ccc2nc(NC(=O)c3cc(-c4ccccc4O)n[nH]3)sc2c1`: in experiment [6], it took 1.8 µM to reach half-maximal inhibition (IC50). Also, in the experiment with Lemna minor [2], the “growth inhibition (GI)” value was “inactive”. Also, in the experiment with Lemna minor [3], the result was inactive.

Regarding `Oc1c(Cc2ccccc2)c(Cl)nc2ncnn12`, the “growth inhibition (GI)” value in the experiment on Lemna minor [2] was “Active”. Also, the outcome in the experiment on Lemna minor [3] was Active.

Regarding `CCOc1ccc(-c2onc(C(F)(F)F)c2-c2ccc(OC)cc2)c(O)c1`, the IC50 in experiment [4] was found to be 61 µM. The “growth inhibition (GI)” value in the experiment with Lemna minor [2] is “Active”. The outcome in the experiment on Lemna minor [3] was Active.

Take `N#Cc1cnn2c(O)c(Cc3ccccc3)c(Cl)nc12`: inhibition in experiment [6] was half-maximal at 0.035 µM (IC50).

`CCC1(C)Cc2c(sc3nc(SC)nc(O)c23)CS1` (configuration not stated) registered an IC50 in experiment [1] of 59 µM. For the same compound, the “growth inhibition (GI)” value with Lemna minor [2] is “inactive”. In addition, the result with Lemna minor [3] was inactive.

The compound `O=C(O)c1ccc(-c2ccc(/C=N/Nc3nc4ccccc4s3)o2)cc1` came in with an IC50 in experiment [4] of 33 µM. For the same compound, the “growth inhibition (GI)” value with Lemna minor [2] was “inactive”. In the experiment with Lemna minor [3], the result was inactive.

In the case of `Nc1ccn([C@@H]2O[C@H](CNC(=O)CCc3nc4ccccc4[nH]3)[C@@H](O)[C@H]2O)c(=O)n1`, the 50% inhibitory concentration (IC50) in experiment [7] came out at 1.7 µM.

`COc1ccc(/C=N/Nc2nc3ccccc3[nH]2)cc1OCc1ccccc1` showed an IC50 in experiment [4] of 49 µM. Further, the “growth inhibition (GI)” value in the experiment on Lemna minor [2] was “inactive”. Moreover, the outcome with Lemna minor [3] was inactive.

In turn, `CCOC(=O)C1=C(C)N=c2s/c(=C\c3cc(Br)c(O)c(Br)c3)c(=O)n2C1c1ccc(OC)cc1` (configuration not stated) yielded an IC50 in experiment [8] of 3.2 µM.

Regarding `COc1ccc(-c2onc(C(F)(F)F)c2-c2ccc(Br)cc2)c(O)c1`, in experiment [4], it took 32 µM to reach half-maximal inhibition (IC50). Besides, the “growth inhibition (GI)” value in the experiment on Lemna minor [2] was “Active”. The result with Lemna minor [3] was Active.

On to `COc1ccc2nc(NC(=O)COc3ccc(-c4ccccc4)cc3)sc2c1`, for which, in experiment [6], the IC50 was determined as 6.3 µM. In addition, the “growth inhibition (GI)” value with Lemna minor [2] is “inactive”. Further, in the experiment on Lemna minor [3], the outcome was inactive.
